Assay results taken from patent US20240190916A1, “NOVEL PEPTIDE” (HYSENSBIO, priority 2022, published 2024).

How the values were obtained:
Format in all cases: cell-based
DSPP gene = assay: DSPP mRNA level by real-time PCR in human dental pulp cells; details: peptide 10 ug/ml, compared to untreated control
Procedure: Human pulp tissue cells were isolated from wisdom teeth of 10 adults (18-22 years old) at Seoul National University Dental Hospital. Specifically, all experiments were performed with the patient's consent after approval from the hospital's Institutional Review Board, and wisdom teeth are cut according to a method of Jung H S et al (J Mol Histol. (2011)), exposing the pulp and isolating the pulp with forceps. The isolated pulp was minced on both sides, placed in a 60 mm dish, covered with a cover slip, and then cultured in Dulbecco's Modified Eagle medium. It is known that human dental pulp cells can differentiate into odontoblasts, osteoblasts, cementoblasts and periodontal ligament cells under various conditions (Tissue Eng Part A. 2014 April; 20(7-8): 1342-51).
(§1) Total RNA of human dental pulp cells and mesenchymal stem cells was isolated using a TRIzol reagent. cDNA was synthesized using 2 μg of total RNA, 1 μl of reverse transcriptase, and 0.5 μg of oligo (dT). The synthesized cDNA was used for real-time polymerase chain reaction. The real-time polymerase chain reaction was performed in ABI PRISM 7500 sequence detection system (Applied Biosystems) using SYBR GREEN PCR Master Mix (Takara, Japan). The real-time polymerase chain reaction was performed at 94° C., 1 min; 95° C., 15 sec-60° C., 34 sec was performed under the condition of repeating 40 cycles. An analysis of the results was evaluated using a comparative cycle threshold (CT) method, and primer base sequences are listed in Table 9.
The effect of each group of peptides on DSPP mRNA expression was confirmed by real-time PCR (Table 10).

BSP gene = assay: BSP mRNA level by real-time PCR in human-derived mesenchymal stem cells; details: compared to untreated control
Procedure: (§2) It was cultured at 37° C. in humid air containing 5% CO2 and used for the experiment. Human mesenchymal stem cells (hBMSCs) were purchased from Lonza (LONZA, Switzerland) and used. hBMSCs were cultured in a-MEM (Invitrogen) medium supplemented with 10% heat-inactivated bovine serum.
as §1
(§3) BSP and DMP1 genes are used as markers for differentiation of osteoblasts and cementoblasts, and are known as important genes for calcification of a bone and cementum. The effects of each group of peptides on BSP and DMP1 mRNA expression were confirmed by a real-time PCR (Tables 11 and 12).

DMP1 gene = assay: DMP1 mRNA level by real-time PCR in human-derived mesenchymal stem cells; details: compared to untreated control
Procedure: as §2, §1, §3

Sequence | mRNA level of DSPP gene, Average (DSPP gene) | mRNA level of BSP gene, BSP gene expression, Average (BSP gene) | mRNA level of DMP1 gene, DMP1 gene expression, Average (DMP1 gene)
KYARRKKNYK [SEQ ID NO: 52] | 2.102 fold | 1.999 fold | 5.991 fold
KYKARKKSYK [SEQ ID NO: 12] | 2.911 fold | 1.918 fold | 7.997 fold
KYARKRRNYK [SEQ ID NO: 53] | 2.037 fold | 2.036 fold | 6.483 fold
KYKARKKNYK [SEQ ID NO: 4] | 9.702 fold | 2.307 fold | 9.720 fold
KYAKKRKNYK [SEQ ID NO: 35] | 1.572 fold | 2.372 fold | 7.527 fold
KYRAKKRNYK [SEQ ID NO: 18] | 2.061 fold | 2.316 fold | 9.161 fold
KYAKKRKSYK [SEQ ID NO: 43] | 1.620 fold | 2.011 fold | 6.791 fold
KYRAKRKNYK [SEQ ID NO: 19] | 1.772 fold | 2.537 fold | 8.999 fold
KYAKRKKSYK [SEQ ID NO: 44] | 2.121 fold | 1.699 fold | 7.663 fold
KYRAKKKNYK [SEQ ID NO: 17] | 2.192 fold | 2.392 fold | 9.400 fold
KYARRRRNYK [SEQ ID NO: 55] | 1.921 fold | 1.773 fold | 6.111 fold
KYARRKKSYK [SEQ ID NO: 60] | 2.195 fold | 1.991 fold | 5.078 fold
KYKARRKNYK [SEQ ID NO: 6] | 7.705 fold | 2.935 fold | 9.897 fold
KYAKRRKSYK [SEQ ID NO: 46] | 1.836 fold | 1.863 fold | 7.294 fold
KYRARRRSYK [SEQ ID NO: 31] | 1.620 fold | 1.798 fold | 9.100 fold
KYRAKRKSYK [SEQ ID NO: 27] | 1.620 fold | 2.195 fold | 8.537 fold
KYKAKRRSYK [SEQ ID NO: 13] | 2.535 fold | 2.637 fold | 9.237 fold
KYAKKKRSYK [SEQ ID NO: 42] | 1.811 fold | 1.882 fold | 7.367 fold
KYARRKRSYK [SEQ ID NO: 64] | 1.606 fold | 2.021 fold | 6.123 fold
KYARKKRSYK [SEQ ID NO: 58] | 1.811 fold | 1.811 fold | 5.999 fold
KYARRKRNYK [SEQ ID NO: 56] | 2.021 fold | 2.016 fold | 5.798 fold
KYKAKKRNYK [SEQ ID NO: 2] | 7.361 fold | 2.713 fold | 10.361 fold
KYARKKKSYK [SEQ ID NO: 57] | 1.886 fold | 1.679 fold | 6.059 fold

Sequence | mRNA level of DSPP gene, Average (DSPP gene) | mRNA level of BSP gene, BSP gene expression, Average (BSP gene) | mRNA level of DMP1 gene, DMP1 gene expression, Average (DMP1 gene)
KYAKRKKNYK [SEQ ID NO: 36] | 1.702 fold | 2.207 fold | 6.999 fold
KYKAKRRNYK [SEQ ID NO: 5] | 6.67 fold | 2.77 fold | 11.001 fold
KYAKRRKNYK [SEQ ID NO: 38] | 1.705 fold | 2.507 fold | 7.777 fold
KYAKKKRNYK [SEQ ID NO: 34] | 2.361 fold | 2.136 fold | 7.031 fold
KYAKKRRNYK [SEQ ID NO: 37] | 1.67 fold | 1.999 fold | 7.032 fold
KYAKRRRSYK [SEQ ID NO: 47] | 1.620 fold | 2.063 fold | 7.107 fold
KYKAKKRSYK [SEQ ID NO: 10] | 3.811 fold | 1.998 fold | 9.998 fold
KYRARRKNYK [SEQ ID NO: 22] | 2.005 fold | 1.893 fold | 7.997 fold
KYRAKKRSYK [SEQ ID NO: 26] | 1.811 fold | 2.081 fold | 8.991 fold
KYARRRKNYK [SEQ ID NO: 54] | 2.005 fold | 2.1 fold | 6.531 fold
KYKARRRNYK [SEQ ID NO: 7] | 8.215 fold | 2.548 fold | 10.236 fold
KYAKRKRNYK [SEQ ID NO: 40] | 2.121 fold | 2.102 fold | 7.635 fold
KYAKKKKNYK [SEQ ID NO: 33] | 1.813 fold | 2.092 fold | 7.709 fold
KYKAKRKNYK [SEQ ID NO: 3] | 8.572 fold | 2.715 fold | 11.271 fold
KYKAKRKSYK [SEQ ID NO: 11] | 3.362 fold | 2.226 fold | 8.795 fold
KYKARKRSYK [SEQ ID NO: 16] | 2.906 fold | 2.307 fold | 10.014 fold
KYARKKRNYK [SEQ ID NO: 50] | 1.661 fold | 1.901 fold | 6.109 fold
KYRARRKSYK [SEQ ID NO: 30] | 1.836 fold | 2.222 fold | 8.683 fold
KYAKKRRSYK [SEQ ID NO: 45] | 2.125 fold | 1.878 fold | 7.309 fold
KYAKRRRNYK [SEQ ID NO: 39] | 2.015 fold | 2.293 fold | 6.989 fold
KYARKKKNYK [SEQ ID NO: 49] | 1.798 fold | 1.971 fold | 6.789 fold
KYKARRKSYK [SEQ ID NO: 14] | 2.136 fold | 1.729 fold | 9.407 fold
KYRAKKKSYK [SEQ ID NO: 25] | 1.919 fold | 2.152 fold | 9.055 fold
